The structures appear in SMILES notation. Where only a bound is given, the exact number is not on record here.

These results are taken from US20240308992A1 (Biopolar Youtang(Guangdong) Pharmaceutical Co., Ltd., priority 2021, published 2024).

For the experiment, the target named is T1, Drak2 (Homo sapiens, UniProt O94768).
T1 sequence (O94768 1-372): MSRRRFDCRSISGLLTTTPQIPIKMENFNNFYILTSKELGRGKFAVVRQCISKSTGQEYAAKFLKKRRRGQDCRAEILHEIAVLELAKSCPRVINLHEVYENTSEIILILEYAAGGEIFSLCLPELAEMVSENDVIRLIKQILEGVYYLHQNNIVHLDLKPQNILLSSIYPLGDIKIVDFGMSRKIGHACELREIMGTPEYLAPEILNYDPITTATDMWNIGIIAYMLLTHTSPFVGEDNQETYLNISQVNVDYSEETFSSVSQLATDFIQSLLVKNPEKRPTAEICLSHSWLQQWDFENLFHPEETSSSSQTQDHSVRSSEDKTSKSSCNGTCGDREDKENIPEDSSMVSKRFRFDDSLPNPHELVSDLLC
Nature of the experiment: Drak2 activity test, ADP-Glo kinase assay (Promega). Type of experiment: biochemical. The settings on record: inhibition of Drak2 kinase activity, 2 h room temperature, activity range classes, read-out: IC50_Drak2. On the technique in general: ADP-Glo turns the ADP formed in a reaction into a luminescent signal.
Take `COc1ccc(-c2cncc(NC3CCC(N)CC3)n2)cc1OC` (stereo not shown) [Example D1, N^1-(6-(3,4-dimethoxyphenyl)pyrazin-2-yl)cyclohexane-1,4-diamine]: the IC50 is greater than 10000 nM.
With `COc1cc(-c2cncc(-c3cc(NC(=O)CC4CC4)cs3)n2)ccc1C(=O)N1CCN(C)CC1` [Example B38, 2-cyclopropyl-N-(5-(6-(3-methoxy-4-(4-methylpiperazine-1-carbonyl)phenyl)pyrazin-2-yl)thiophen-3-yl)acetamide] the figure was 11 to 100 nM.
Under `COc1cc(-c2cncc(-c3cc(NC(=O)CC4CCC4)cs3)n2)ccc1S(=O)(=O)C1CCC1` [Example A48, 2-cyclobutyl-N-(5-(6-(4-(cyclobutylsulfonyl)-3-methoxyphenyl)pyrazin-2-yl)thiophen-3-yl)acetamide] stands 101 to 1000 nM.
`CCCCC(=O)Nc1csc(-c2cncc(-c3ccc(C(=O)Nc4nnnn4C)c(OC)c3)n2)c1` [Example B15, 2-methoxy-4-(6-(4-pentanamidothiophen-2-yl)pyrazin-2-yl)-N-(1-methyl-1H-tetrazol-5-yl)-benzamide]: the IC50 was in the range of 11 to 100 nM.
Under `COc1cc(-c2cncc(-c3cc(NC(=O)C(C)(C)C4CC(F)(F)C4)cs3)n2)ccc1C(=O)N(C)C1CC2(C1)CN(C)C2` (stereo not shown) [Example 203, 4-[6-(4-{[2-(3,3-difluorocyclobutyl)-2-methylpropionyl]amino}thiophen-2-yl)pyrazin-2-yl]-2-methoxy-N-methyl-N-(2-methyl-2-azaspiro [3.3]hept-6-yl) benzamide] stands 11 to 100 nM.
With `CCCCCCc1csc(-c2cncc(-c3ccc(OC)c(OC)c3)n2)c1` [Example 188, 2-(3,4-Dimethoxyphenyl)-6-(4-hexylthiophen-2-yl) pyrazine] the figure was 1000 to 10000 nM; with `CCCCC(=O)Nc1csc(-c2cncc(-c3ccc(C(=O)N(C)C4CCN(c5ncccn5)CC4)c(OC)c3)n2)c1` [Example B72, 2-methoxy-N-methyl-4-(6-(4-pentanamidothiophen-2-yl)pyrazin-2-yl)-N-(1-(pyrimidin-2-yl)piperidin-4-yl)benzamide], 101 to 1000 nM; with `CCCCC(=O)Nc1csc(-c2cncc(-c3ccc(C(=O)N(C)C4CCN(c5cnn(C)c5)CC4)c(OC)c3)n2)c1` [Example B71, 2-methoxy-N-methyl-N-(1-(1-methyl-1H-pyrazol-4-yl)piperidin-4-yl)-4-(6-(4-pentanamidothiophen-2-yl)pyrazin-2-yl)benzamide], 11 to 100 nM.
In the case of `COc1cc(-c2cncc(-c3cc(NC(=O)CC4CC4)cs3)n2)ccc1C(=O)Nc1nnn[nH]1` [Example B12, 2-methoxy-4-(6-(4-(2-cyclopropylacetamido)thiophen-2-yl)pyrazin-2-yl)-N-(1H-tetrazol-5-yl)benzamide], the IC50 was in the range of 101 to 1000 nM.
With `COc1cc(-c2cncc(-c3cc(NC(=O)CC4CCC4)cs3)n2)ccc1C(=O)N(C)CCN(C)C` [Example B57, 4-(6-(4-(2-cyclobutylacetamido)thiophen-2-yl)pyrazin-2-yl)-N-(2-(dimethylamino)ethyl)-2-methoxy-N-methylbenzamide] the figure was 11 to 100 nM.
Under `COc1cc(-c2cncc(-c3cc(NC(=O)CC4CCC4)cs3)n2)ccc1OCCc1cnccn1` [Example 174, 2-cyclobutyl-N-{5-[6-(3-methoxy-4-{[2-(pyrazin-2-yl)ethyl]oxy}phenyl)pyrazin-2-yl]thiophen-3-yl} acetamide] stands 11 to 100 nM; under `CCCCC(=O)Nc1csc(-c2cncc(-c3ccc(C(=O)N4CCOCC4)c(OC)c3)n2)c1` [Example B29, N-(5-(6-(3-methoxy-4-(morpholine-4-carbonyl)phenyl)pyrazin-2-yl)thiophen-3-yl)pentanamide], 11 to 100 nM; under `CCCCC(=O)Nc1csc(-c2cncc(-c3ccc(OC)c(Cl)c3)n2)c1` [Example A19, N-(5-(6-(3-chloro-4-methoxyphenyl)pyrazin-2-yl)thiophen-3-yl)pentanamide], 101 to 1000 nM.
Under `COc1cc(-c2cncc(-c3cc(NC(=O)CC4CC(F)C4)cs3)n2)ccc1C(=O)N(C)C1CCN(C)CC1` (stereo not shown) [Example B90, 4-(6-(4-(2-(3-fluorocyclobutyl)acetamido)thiophen-2-yl)pyrazin-2-yl)-2-methoxy-N-methyl-N-(1-methylpiperidin-4-yl)benzamide] stands less than 10 nM.
Regarding `CCCCCC(=O)Nc1csc(-c2cncc(-c3ccc(C(=O)Nc4nnn[nH]4)c(OC)c3)n2)c1` [Example B16, 2-methoxy-4-(6-(4-hexanamidothiophen-2-yl)pyrazin-2-yl)-N-(1H-tetrazol-5-yl)benzamide], the IC50 is 101 to 1000 nM.
Under `CCCCC(=O)Nc1csc(-c2cncc(-c3ccc(S(C)(=O)=O)c(OC)c3)n2)c1` [Example A42, N-(5-(6-(3-methoxy-4-(methylsulfonyl)phenyl)pyrazin-2-yl)thiophen-3-yl)pentanamide] stands 101 to 1000 nM; under `CCCCC(=O)Nc1csc(-c2cncc(-c3ccc(OCCN4CCOCC4)c(OC)c3)n2)c1` [Example 179, N-{5-[6-(3-methoxy-4-{[2-(morpholin-4-yl)ethyl]oxy}phenyl)pyrazin-2-yl]thiophen-3-yl} pentanamide], 11 to 100 nM.
In the case of `COc1cc(-c2cncc(-c3cc(NC(=O)CC4CCC4)cs3)n2)ccc1C(=O)N(C)C1CC2(C1)CN(C)C2` [Example B93, 4-(6-(4-(2-cyclobutylacetamido)thiophen-2-yl)pyrazin-2-yl)-2-methoxy-N-methyl-N-(2-methyl-2-azaspiro[3.3]heptan-6-yl)benzamide], the IC50 is 11 to 100 nM.
With `CCCCC(=O)Nc1csc(-c2cncc(-c3cncs3)n2)c1` [Example 217, N-{5-[6-(1,3-thiazole-5-yl)pyrazin-2-yl]thiophen-3-yl} pentanamide] the figure was 11 to 100 nM; with `CCCCC(=O)Nc1csc(-c2cncc(-c3ccc(C(=O)Nc4nnn[nH]4)c(OC)c3)n2)c1` [Example B4, 2-methoxy-4-(6-(4-pentanamidothiophen-2-yl)pyrazin-2-yl)-N-(1H-tetrazol-5-yl)benzamide], 11 to 100 nM.
As to `COc1cc(-c2cncc(-c3cc(NC(=O)CC4CC4)cs3)n2)ccc1C(=O)N(C)CCN(C)C` [Example B56, 4-(6-(4-(2-cyclopropylacetamido)thiophen-2-yl)pyrazin-2-yl)-N-(2-(dimethylamino)ethyl)-2-methoxy-N-methylbenzamide], the IC50 is less than 10 nM.
Under `COc1cc(-c2cncc(-c3cc(NC(=O)CC4CCC4)cs3)n2)ccc1C(=O)N1CCOCC1` [Example B32, 2-cyclobutyl-N-(5-(6-(3-methoxy-4-(morpholine-4-carbonyl)phenyl)pyrazin-2-yl)thiophen-3-yl)acetamide] stands 11 to 100 nM; under `CCCCC(=O)Nc1csc(-c2cncc(-c3ccc(O)c(F)c3)n2)c1` [Example A34, N-(5-(6-(3-fluoro-4-hydroxyphenyl)pyrazin-2-yl)thiophen-3-yl)pentanamide], 11 to 100 nM; under `CCCCC(=O)Nc1csc(-c2cncc(-c3ccc4c(c3)OCO4)n2)c1` [Example A23, N-(5-(6-(benzo[d][1,3]dioxol-5-yl)pyrazin-2-yl)thiophen-3-yl)pentanamide], 101 to 1000 nM.
With `COc1cc(-c2cncc(-c3cc(NC(=O)CC45CC(C4)C5)cs3)n2)ccc1C(=O)N1CCOCC1` [Example B45, 2-(bicyclo[1.1.1]pentan-1-yl)-N-(5-(6-(3-methoxy-4-(morpholine-4-carbonyl)phenyl)pyrazin-2-yl)thiophen-3-yl)acetamide], the IC50 is 11 to 100 nM.
